Laboratory results: article PMC8880313, “Discovery of Novel Andrographolide Derivatives as Antiviral Inhibitors against Human Enterovirus A71” (Pharmaceuticals, 2022)

Tests used:
EV-A71 Passage 21 = test: Post-treatment assay on EV-A71 passaged 21 times with ZAF-47 (resistant mutant generation); type: cell-based, human enterovirus A71 (EV-A71); details: supernatant from Passage 21, MOI = 1, RD cells
Method: Unfortunately, we were unable to obtain any resistant mutants as the viral titre for ZAF-47-treated remained lower than that of the controls at Passage 21. […] As a result, we hypothesize that ZAF-47 possibly targets host factor/s associated with EV-A71 RNA replication which makes it harder to generate resistant mutants.
Seeded 24-well plates, with 1.5 × 10^5 RD cells per well, were incubated overnight at 37 °C with 5% CO2. After which, the cells were subjected to EV-A71 infection (200 µL per well, MOI = 1) for 1 h before treatment with 800 µL of ZAF-47 at final concentration of 10 µM for 12 h at 37 °C with 5% CO2. Treatment with reduced serum DMEM and 0.1% DMSO functioned as negative and vehicle controls respectively. Upon 12 hpi, the supernatant was collected for viral plaque assay as well as to infect (200 µL) another seeded plate.

[1] = test system: replication-competent EV-A71 RNA replicon; test: Nano-luciferase reporter assay, replication-competent replicon; type: cell-based, human enterovirus A71 (EV-A71); details: RD cells, 12 h; ZAF-47 different concentrations, GuHCl 1 mM
Method: To identify specifically which of these two intrinsically linked processes that ZAF-47 inhibits, we transfected RD cells with EV-A71 RNA replicons that were either replication-competent or replication-defective and subsequently treated them with different concentrations of ZAF-47 for 12 h before detecting for luminescence. Both forms of replicons were previously established and validated. The replication-competent replicon is capable of self-replicating as it contains an intact 3D region that encodes for 3D polymerase (3D^pol) responsible for RNA replication (Figure 4c). […] In contrast, the replication-defective replicon contains a 3D region with 159 nucleotide deletion which would produce a non-functional 3D protein and impair RNA replication (Figure 4c). As such, cells containing the replication-defective replicon express luciferase upon IRES translation of the original replicons only. The transfected cells were also treated with negative control, DMSO and positive controls, guanidine hydrochloride (GuHCl) and cycloheximide (CHX), a RNA replication-specific inhibitor [50] and a general translation inhibitor [51] respectively.
Seeded 96-well plates, with 2 × 10^4 RD cells per well, were incubated overnight at 37 °C with 5% CO2. […]

EV-A71 IRES = test: Bicistronic luciferase reporter assay; type: cell-based, human enterovirus A71 (EV-A71) strain 41; details: RD cells, various concentrations, 12 h
Method: To validate this finding, we also transfected RD cells with a bicistronic reporter construct which had been established and validated previously. Similarly, the transfected cells were treated with ZAF-47 at various concentrations and then incubated for 12 h before luminescence detection. The construct comprises a human cytomegalovirus (CMV) promoter with a downstream Renilla luciferase (R Luc) gene and an EV-A71 strain 41 IRES with a downstream firefly luciferase (F Luc) gene (Figure 4f). This means that R Luc can be expressed by the CMV promoter via cap-dependent translation while F Luc can be expressed by the EV-A71 IRES via cap-independent translation. An accurate determination of IRES activity would be to use the ratio of F Luc luminescence reading to R Luc luminescence reading (F Luc/R Luc). The transfected cells were also treated with negative control, DMSO and positive control, apigenin, an EV-A71 IRES inhibitor [53].
Seeded 96-well white plates (Corning), with 2 × 10^4 RD cells per well, were incubated overnight at 37 °C with 5% CO2. After which, a bicstronic luciferase reporter construct was used to transfect the cells, as described in our previous work, for 12 h at 37 °C with 5% CO2. […]

In the case of `CC(=O)OC[C@]1(C)C(=O)CC[C@@]2(C)C(C/C=C3/C(=O)OC[C@@H]3Oc3cccc4cccnc34)=C(C)CC[C@@H]21` [ZAF-47, (14β)-(8′-Quinolinoxy)-3-ketone-9-dehydro-17-hydro-19-acetoxy–andrographolide], the “inhibition of passaged virus” value (EV-A71 Passage 21) is reported as “still capable of inhibiting the passaged virus dose-dependently”, the “luminescence, replication-competent replicon” value [1] is reported as “significant decrease in luminescence in a dose-dependent manner” and the “IRES activity (F Luc/R Luc)” value (EV-A71 IRES) is reported as “did not reduce IRES activity”.
